According to patent US6451850B1, “Bio-chemical germanium complexes with high therapeutic efficiency and wide application spectrum” (priority 2001, dated 2002):

Conditions: Table 4
Description: Water solutions or suspensions of the complexes under investigation have been injected intraperitoneally 30÷60 min. before beginning of the experiment. Animals from the control group got equal amounts of physiological salt solution. High altitude hypoxia was made in special air tight chambers, in which a lift of the animals up to the altitude 10,000 m has been imitated by pumping out of air. A criterion of validity for the complexes was increase of mice life length and survivability of these.
Interferon inducing activity of the complexes has been studied with various methods, including the study with native leukocytes of human donor blood.
Antiinflammatory effect has been studied for animals according to the method by Ju. Strel'nikov. Experiments have been carried out with white mice of mass 20 g. Aseptic inflammation was caused by injection of 0.1 ml of 2.5% formalin solution into thigh thickness of an animal's paw. A compound under investigation was injected into the stomach in the dose equimolecular to 20 mg/kg of indometacin two hours before the injection of formalin. Distinction of the edema was estimated by increase of a mass of inflamed and uninflammed paws in experimental groups of animals compared to control ones. […] Simultaneously antiinflammatory activity of indometacin was studied for comparison.

Compound | Expansion of Effect Spectrum for the Complex Medicament
NC12CC3CC(CC(C3)C1)C2.[CH3][Ge]12[O]CCN(CC(=O)[O]1)CC(=O)[O]2 | - . -
Cc1cn([C@H]2C[C@H](N=[N+]=[N-])[C@@H](CO)O2)c(=O)[nH]c1=O.[CH3][Ge]12[O]CCN(CC(=O)[O]1)CC(=O)[O]2 | - . -
[CH3][Ge]12[O]CCN(CC(=O)[O]1)CC(=O)[O]2.c1ccc(Cc2nc3ccccc3[nH]2)cc1 [Dibasolum OGC (R = CH3, R1R2 = R5R6 = O)] | - . -
[OH][Ge]12[O]CCN(CC[O]1)CC[O]2.c1ccc(Cc2nc3ccccc3[nH]2)cc1 [Dibasolum OGC (R = OH)] | - . -
[SH][Ge]12[O]CCN(CC[O]1)CC[O]2.c1ccc(Cc2nc3ccccc3[nH]2)cc1 [Dibasolum OGC (R = SH)] | - . -
C[CH2][Ge]12[O]CCN(CC[O]1)CC(=O)[O]2.O=c1[nH]c(=O)n([C@H]2C[C@H](O)[C@@H](CO)O2)cc1I [Idoxuridine OGC (R = C2H5, R1,R2 = O)] | - . -
O=c1[nH]c(=O)n(C2CC(O)C(CO)O2)cc1I.[OH][Ge]12[O]CCN(CC[O]1)CC[O]2 (stereo not shown) [Idoxuridine OGC (R = OH)] | - . -
O=c1[nH]c(=O)n([C@H]2C[C@H](O)[C@@H](CO)O2)cc1I.[SH][Ge]12[O]CCN(CC[O]1)CC[O]2 [Idoxuridine OGC (R = SH)] | - . -
NC12CC3CC(CC(C3)C1)C2.[OH][Ge]12[O]CCN(CC[O]1)CC[O]2 [Midantanum OGC (R = OH)] | - . -
NC12CC3CC(CC(C3)C1)C2.[SH][Ge]12[O]CCN(CC[O]1)CC[O]2 [Midantanum OGC (R = SH)] | - . -
CC(N)C12CC3CC(CC(C3)C1)C2.O=C1CN2CC[O][Ge]([OH])([O]CC2)[O]1 (stereo not shown) [Remantadinum OGC (R = OH, R1R2 = O)] | - . -
CC(N)C12CC3CC(CC(C3)C1)C2.[SH][Ge]12[O]CCN(CC[O]1)CC[O]2 (stereo not shown) [Remantadinum OGC (R = SH)] | - . -
Nc1ncnc2c1ncn2C1OC(CO)C(O)C1O.O=C1CN2CC[O][Ge]([OH])([O]CC2)[O]1 (stereo not shown) [Vidarabinum OGC (R = OH, R1,R2 = O)] | - . -
Nc1ncnc2c1ncn2C1OC(CO)C(O)C1O.[OH][Ge]12[O]CCN(CC[O]1)CC[O]2 (stereo not shown) [Vidarabinum OGC(R = OH)] | - . -
CC1CN2CC[O][Ge]([OH])([O]CC2)[O]1.Nc1ncnc2c1ncn2C1OC(CO)C(O)C1O (stereo not shown) [Vidarabinum OGC(R = OH, R1 = CH3)] | - . -
C[CH2][Ge]12[O]CCN(CC[O]1)CC(=O)[O]2.Nc1nc2c(ncn2COCCO)c(=O)[nH]1 [Virolex OGC (R = C2H5, R1, R2 = O)] | - . -
Cc1cn([C@H]2C[C@H](N=[N+]=[N-])[C@@H](CO)O2)c(=O)[nH]c1=O.[CH3][Ge]([CH3])([CH3])[O][Ge]12[O]CCN(CC[O]1)CC[O]2 [Zidovudine OGC (R = OGeMe3)] | - . -
Cc1cn([C@H]2C[C@H](N=[N+]=[N-])[C@@H](CO)O2)c(=O)[nH]c1=O.[OH][Ge]12[O]CCN(CC[O]1)CC[O]2 [Zidovudine OGC (R = OH)] | - . -
C[Si](C)(C)[O][Ge]12[O]CCN(CC[O]1)CC[O]2.Cc1cn([C@H]2C[C@H](N=[N+]=[N-])[C@@H](CO)O2)c(=O)[nH]c1=O [Zidovudine OGC (R = OSiMe3)] | - . -
Cc1cn([C@H]2C[C@H](N=[N+]=[N-])[C@@H](CO)O2)c(=O)[nH]c1=O.[SH][Ge]12[O]CCN(CC[O]1)CC[O]2 [Zidovudine OGC (R = SH)] | - . -

Same assay, conditions: Table 5

Compound | Expansion of Effect Spectrum for the Complex Medicament
CN(C)CCCN1c2ccccc2Sc2ccc(Cl)cc21.O=C1CN2CC[O][Ge]([C]34CC5CC(CC(C5)C3)C4)([O]1)[O]C(=O)C2 | - . -
CN(C)CCC=C1c2ccccc2Sc2ccc(Cl)cc21.C[CH2][Ge]12[O]CCN(CC(=O)[O]1)CC(=O)[O]2 | - . -
O=C1CN2CC[O][Ge]([C]34CC5CC(CC(C5)C3)C4)([O]1)[O]C(=O)C2.O=C1NC(=O)C(c2ccccc2)(c2ccccc2)N1 | - . -
CCC1(c2ccccc2)C(=O)NCNC1=O.O=C1CN2CC[O][Ge]([C]34CC5CC(CC(C5)C3)C4)([O]1)[O]C(=O)C2 | - . -
N[C@@H](Cc1ccc(O)c(O)c1)C(=O)O.O=C1CN2CC[O][Ge]([C]34CC5CC(CC(C5)C3)C4)([O]1)[O]C(=O)C2 | - . -
CN1CCN(CCCN2c3ccccc3Sc3ccc(Cl)cc32)CC1.[CH3][Ge]12[O]CCN(CC(=O)[O]1)CC(=O)[O]2 | - . -
O=C1CN=C(c2ccccc2Cl)c2cc(Br)ccc2N1.[CH3][Ge]12[O]C(=O)CN(CC(=O)[O]1)CC(=O)[O]2 | - . -
O=C1CN2CC[O][Ge]([C]34CC5CC(CC(C5)C3)C4)([O]CC2)[O]1.O=C1CN=C(c2ccccc2Cl)c2cc(Br)ccc2N1 | - . -
CCC1(c2ccccc2)C(=O)NC(=O)NC1=O.O=C1CN2CC[O][Ge]([C]34CC5CC(CC(C5)C3)C4)([O]1)[O]C(=O)C2 | - . -
CN(C)CCCN1c2ccccc2Sc2ccc(Cl)cc21.[OH][Ge]12[O]CCN(CC[O]1)CC[O]2 [Aminazinum OGC (R = OH)] | - . -
CN(C)CCCN1c2ccccc2Sc2ccc(Cl)cc21.[SH][Ge]12[O]CCN(CC[O]1)CC[O]2 [Aminazinum OGC (R = SH)] | - . -
CN(C)CCC=C1c2ccccc2Sc2ccc(Cl)cc21.[OH][Ge]12[O]CCN(CC[O]1)CC[O]2 [Chlorprotexenum OGC (R = OH)] | - . -
CN(C)CCC=C1c2ccccc2Sc2ccc(Cl)cc21.[SH][Ge]12[O]CCN(CC[O]1)CC[O]2 [Chlorprotexenum OGC (R = SH)] | - . -
CN1C(=O)CN=C(c2ccccc2)c2cc(Cl)ccc21.[OH][Ge]12[O]CCN(CC[O]1)CC[O]2 [Diazepam OGC (R = OH)] | - . -
CN1C(=O)CN=C(c2ccccc2)c2cc(Cl)ccc21.[SH][Ge]12[O]CCN(CC[O]1)CC[O]2 [Diazepam OGC (R = SH)] | - . -
O=C1NC(=O)C(c2ccccc2)(c2ccccc2)N1.[OH][Ge]12[O]CCN(CC[O]1)CC[O]2 [Dipheninum OGC (R = OH)] | - . -
CCC1(c2ccccc2)C(=O)NCNC1=O.[OH][Ge]12[O]CCN(CC[O]1)CC[O]2 [Hexamidinum OGC (R = OH)] | - . -
N[C@@H](Cc1ccc(O)c(O)c1)C(=O)O.[OH][Ge]12[O]CCN(CC[O]1)CC[O]2 [Levodopa OGC (R = OH)] | - . -
CN1CCN(CCCN2c3ccccc3Sc3ccc(Cl)cc32)CC1.[OH][Ge]12[O]CCN(CC[O]1)CC[O]2 [Meterazinum OGC (R = OH)] | - . -
CN1CCN(CCCN2c3ccccc3Sc3ccc(Cl)cc32)CC1.[SH][Ge]12[O]CCN(CC[O]1)CC[O]2 [Meterazinum OGC (R = SH)] | - . -
CN1CCN=C(c2ccccc2)c2cc(Cl)ccc21.[CH3][Ge]12[O]CCN(CC(=O)[O]1)CC(=O)[O]2 [Mezapamun OGC (R = CH3) R1R2 = R5R6 = O)] | - . -
CN1CCN=C(c2ccccc2)c2cc(Cl)ccc21.[CH3][Ge]([CH3])([CH3])[O][Ge]12[O]CCN(CC[O]1)CC[O]2 [Mezapamun OGC (R = OGeMe3)] | - . -
CN1CCN=C(c2ccccc2)c2cc(Cl)ccc21.[OH][Ge]12[O]CCN(CC[O]1)CC[O]2 [Mezapamun OGC (R = OH)] | - . -
CN1CCN=C(c2ccccc2)c2cc(Cl)ccc21.C[Si](C)(C)[O][Ge]12[O]CCN(CC[O]1)CC[O]2 [Mezapamun OGC (R = OSiMe3)] | - . -
CN1CCN=C(c2ccccc2)c2cc(Cl)ccc21.O=C1CN2CC[O][Ge]([C]34CC5CC(CC(C5)C3)C4)([O]CC2)[O]1 [Mezapamun OGC (R = adamantyl, R1R2 = O)] | - . -
NC12CC3CC(CC(C3)C1)C2.[OH][Ge]12[O]CCN(CC[O]1)CC[O]2 [Midantanum OGC (R = OH)] | - . -
NC12CC3CC(CC(C3)C1)C2.[SH][Ge]12[O]CCN(CC[O]1)CC[O]2 [Midantanum OGC (R = SH)] | - . -
O=C1CN=C(c2ccccc2Cl)c2cc(Br)ccc2N1.[OH][Ge]12[O]CCN(CC[O]1)CC[O]2 [Phenazepamum OGC (R = OH)] | - . -
CCC1(c2ccccc2)C(=O)NC(=O)NC1=O.[SH][Ge]12[O]CCN(CC[O]1)CC[O]2 [Phenobarbitalum OGC(R = SH)] | - . -
